Columns and labels:
[1] = target: T1, S-phase kinase associated protein 2 (Skp2) (Homo sapiens, UniProt P61024+Q13309); experiment: HTRF Skp2/Skp1-Cks1 binding inhibition assay; also CETSA of Skp2 in SGC-7901 cells
T1 construct: GST-Skp2/Skp1; with Skp1; Cks1 (His6-Cks1)

[2] = target: T1, S-phase kinase associated protein 2 (Skp2); experiment: HTRF Skp2/Skp1-Cks1 binding inhibition assay

T1 sequence (Q13309 whole entry): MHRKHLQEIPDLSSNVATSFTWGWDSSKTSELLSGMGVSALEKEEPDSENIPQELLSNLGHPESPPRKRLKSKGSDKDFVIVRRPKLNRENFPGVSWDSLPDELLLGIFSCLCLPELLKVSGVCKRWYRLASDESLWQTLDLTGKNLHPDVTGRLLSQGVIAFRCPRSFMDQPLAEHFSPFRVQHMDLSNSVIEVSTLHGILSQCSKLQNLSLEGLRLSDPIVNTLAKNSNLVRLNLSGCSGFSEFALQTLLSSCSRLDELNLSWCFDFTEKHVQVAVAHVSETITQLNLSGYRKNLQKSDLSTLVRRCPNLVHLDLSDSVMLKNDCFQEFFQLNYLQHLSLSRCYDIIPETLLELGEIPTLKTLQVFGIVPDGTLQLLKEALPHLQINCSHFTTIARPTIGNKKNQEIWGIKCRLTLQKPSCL
T1 sequence (P61024 2-79): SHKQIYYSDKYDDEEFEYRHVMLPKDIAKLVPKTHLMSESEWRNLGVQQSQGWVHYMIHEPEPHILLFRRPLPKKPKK
T1 sequence (P63208 2-163 partner): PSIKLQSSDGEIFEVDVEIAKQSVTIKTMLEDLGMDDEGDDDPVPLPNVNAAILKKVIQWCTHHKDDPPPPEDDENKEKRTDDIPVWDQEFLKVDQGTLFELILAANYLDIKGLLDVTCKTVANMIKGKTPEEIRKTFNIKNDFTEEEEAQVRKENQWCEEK

IC50 [1]	IC50 [2]	SMILES
2.14 ± 0.76 µM	–	C=CC(=O)Nc1cccc(-c2nnc(SCc3ccccc3)n2C)c1 [SYK-031]
–	58.7 ± 1.62 µM	COC(=O)c1ccc(CCc2cc(O)ccc2O)cc1 [Skp2-1, NSC681152]
27.8 ± 1.44 µM	–	Cc1ccc(S(=O)(=O)Nc2cccc3cccnc23)cc1 [Skp2-2]

— paper PMC8548536, “Establishment of high-throughput screening HTRF assay for identification small molecule inhibitors of Skp2-Cks1” (Scientific Reports, 2021)
